Assay results reported in patent publication US20200255367A1, “Diesters for Personal Care Applications Derived from 1-Methylheptyl Alcohol” (Inolex Investment Corporation, priority 2016, published 2020).

Legend:
[1] = 60° C.; cited from earlier work
[2] = Kinematic viscosity at 25° C., ASTM method; format: physicochemical
Method: Kinematic viscosity was tested at 25° C. using ASTM (American Society of Testing and Materials, West Conshohocken, Pa., USA) official method number D-44515a.

[3] = Acid value (AV), ASTM method; format: physicochemical
Method: Acid value (AV) was measured using ASTM official method number D-974-1 ? .

[4] = Moisture content by Karl-Fischer; format: physicochemical
Method: Moisture content (% HOH) was measured using an automatic volumetric Karl-Fischer device, the Aquastar AQV21 (Gibbstown, N.J., USA.)

Color, ASTM D-1209 = format: physicochemical
Method: Color was measured using ASTM D-1209-05(2001 reapproved), and flash point was determined using ASTM D-92-12b.

| Kinematic Viscosity [2] | Acid value [3] | Moisture [4] | Color (Color, ASTM D-1209) | SMILES | alkaline hydrolysis rate constant (kOH) [1] |
| --- | --- | --- | --- | --- | --- |
|  |  |  |  | CC(C)OC(=O)c1ccccc1 [isopropyl benzoate] | 0.0533 M⁻¹ s⁻¹ |
| 7.2 cSt | 0.05 mg KOH/g | 0.01 wt. % | 17 APHA | CCCCCCC(=O)OCC(C)(C)COC(=O)CCCCCC [neopentyl glycol diheptanoate] |  |
|  |  |  |  | CCOC(=O)c1ccccc1 [ethyl benzoate] | 0.258 M⁻¹ s⁻¹ |
| 12.0 cSt | 0.01 mg KOH/g | 0.01 wt. % | 12 APHA | CCCCCCC(C)OC(=O)CCC(=O)OC(C)CCCCCC (stereo not shown) [bis(1-methylheptyl) butanedioate] |  |
